Activity calls are given as the source filed them. The calls are words filed in the database; no cut-off is given here.
Experiments:
Mus musculus [1] = assay: Antagonist activity at mesolimbic dopaminergic D2 receptor in Swiss albino Mus musculus (mouse) assessed as inhibition of apomorphine-induced cage climbing behavior at 10 mg/kg, ip administered 1 hr prior to apomorphine challenge measured after 10 min relative to vehicle-treated control; format: functional; details: route intraperitoneal
[2] = target: D(2) dopamine receptor (Rattus norvegicus) (UniProt P61169); assay: Displacement of [3H]spiperone from D2 receptor in Rattus norvegicus (rat) straitum membrane homogenates at 100 uM after 60 min by liquid scintillation counting analysis
Mus musculus [3] = assay: Antagonist activity at mesolimbic dopaminergic D2 receptor in Swiss albino Mus musculus (mouse) assessed as inhibition of apomorphine-induced cage climbing behavior at 10 mg/kg, ip administered 1 hr prior to apomorphine challenge measured after 20 min relative to vehicle-treated control; format: functional; details: route intraperitoneal
Mus musculus [4] = assay: Selectivity ratio of inhibition of 5-HT2A receptor in Swiss albino Mus musculus (mouse) to inhibition of dopaminergic D2 receptor in Swiss albino Mus musculus (mouse) at 10 mg/kg, ip; format: functional; details: route intraperitoneal
[5] = target: D(2) dopamine receptor (Rattus norvegicus) (UniProt P61169); assay: Displacement of [3H]spiperone from dopaminergic D2 receptor in Rattus norvegicus (rat) straitum membrane homogenates up to 1 uM after 60 min by liquid scintillation counting analysis
[6] = target: 5-hydroxytryptamine receptor 2A (Rattus norvegicus) (UniProt P14842); assay: Displacement of [3H]ketanserin from 5-HT2A receptor in Rattus norvegicus (rat) cortex membrane homogenates at 10 uM after 90 min by liquid scintillation counting analysis
Mus musculus [7] = assay: Antagonist activity at mesolimbic dopaminergic D2 receptor in Swiss albino Mus musculus (mouse) assessed as inhibition of apomorphine-induced cage climbing behavior at 10 mg/kg, ip administered 1 hr prior to apomorphine challenge measured after 30 min relative to vehicle-treated control; format: functional; details: route intraperitoneal
Mus musculus [8] = assay: In vivo inhibition of 5-HT2A receptor in Swiss albino Mus musculus (mouse) at 10 mg/kg, ip relative to vehicle-treated control; format: functional; details: route intraperitoneal
[9] = target: D(2) dopamine receptor (Rattus norvegicus) (UniProt P61169); assay: Displacement of [3H]spiperone from D2 receptor in Rattus norvegicus (rat) straitum membrane homogenates at 10 uM after 60 min by liquid scintillation counting analysis
[10] = target: 5-hydroxytryptamine receptor 2A (Rattus norvegicus) (UniProt P14842); assay: Displacement of [3H]ketanserin from 5-HT2A receptor in Rattus norvegicus (rat) cortex membrane homogenates up to 1 uM after 90 min by liquid scintillation counting analysis
Mus musculus [11] = assay: Antagonist activity at central serotonergic 5-HT2A receptor in Swiss albino Mus musculus (mouse) assessed as inhibition of quipazine meleate-induced head twiches at 10 mg/kg, ip administered 1 hr prior to quipazine meleate challenge measured after 30 to 40 min relative to vehicle-treated control; format: functional; details: route intraperitoneal
Mus musculus [12] = assay: Antagonist activity at nigrostriatal dopaminergic D2 receptor in Swiss albino Mus musculus (mouse) assessed as maximum average cataleptic time at 10 mg/kg, ip after 1 to 5 hr relative to vehicle-treated control; format: organism-based; set-up: dose 10 mg/kg, route intraperitoneal; details: in vivo
Mus musculus [13] = assay: In vivo inhibition of dopaminergic D2 receptor in Swiss albino Mus musculus (mouse) at 10 mg/kg, ip relative to vehicle-treated control; format: functional; details: route intraperitoneal
Mus musculus [14] = assay: Antagonist activity at mesolimbic dopaminergic D2 receptor in Swiss albino Mus musculus (mouse) assessed as inhibition of apomorphine-induced cage climbing behavior at 0.6 mg/kg, ip administered 1 hr prior to apomorphine challenge measured after 30 min relative to vehicle-treated control; format: functional; details: route intraperitoneal
Mus musculus [15] = assay: Antagonist activity at central serotonergic 5-HT2A receptor in Swiss albino Mus musculus (mouse) assessed as inhibition of quipazine meleate-induced head twiches at 0.6 mg/kg, ip administered 1 hr prior to quipazine meleate challenge measured after 30 to 40 min relative to vehicle-treated control; format: functional; details: route intraperitoneal
Mus musculus [16] = assay: Antagonist activity at nigrostriatal dopaminergic D2 receptor in Swiss albino Mus musculus (mouse) assessed as maximum average cataleptic time at 0.6 mg/kg, ip after 1 to 5 hr relative to vehicle-treated control; format: organism-based; set-up: dose 0.6 mg/kg, route intraperitoneal; details: in vivo
Mus musculus [17] = assay: Antagonist activity at mesolimbic dopaminergic D2 receptor in Swiss albino Mus musculus (mouse) assessed as inhibition of apomorphine-induced cage climbing behavior at 0.6 mg/kg, ip administered 1 hr prior to apomorphine challenge measured after 20 min relative to vehicle-treated control; format: functional; details: route intraperitoneal
Mus musculus [18] = assay: Antagonist activity at mesolimbic dopaminergic D2 receptor in Swiss albino Mus musculus (mouse) assessed as inhibition of apomorphine-induced cage climbing behavior at 0.6 mg/kg, ip administered 1 hr prior to apomorphine challenge measured after 10 min relative to vehicle-treated control; format: functional; details: route intraperitoneal

Sequence of 5-hydroxytryptamine receptor 2A (Rattus norvegicus) (P14842 whole entry): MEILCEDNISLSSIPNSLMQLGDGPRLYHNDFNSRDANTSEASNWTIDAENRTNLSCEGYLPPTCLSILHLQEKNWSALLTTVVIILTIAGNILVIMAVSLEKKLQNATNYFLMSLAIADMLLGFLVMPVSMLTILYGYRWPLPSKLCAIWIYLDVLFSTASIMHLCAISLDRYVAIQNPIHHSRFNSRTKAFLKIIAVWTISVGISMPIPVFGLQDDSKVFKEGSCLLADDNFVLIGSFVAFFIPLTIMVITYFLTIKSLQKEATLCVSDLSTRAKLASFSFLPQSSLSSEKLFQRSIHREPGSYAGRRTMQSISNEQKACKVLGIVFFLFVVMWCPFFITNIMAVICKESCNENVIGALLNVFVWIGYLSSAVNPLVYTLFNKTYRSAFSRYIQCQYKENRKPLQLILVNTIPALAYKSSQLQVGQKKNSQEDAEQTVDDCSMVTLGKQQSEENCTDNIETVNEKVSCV
Sequence of D(2) dopamine receptor (Rattus norvegicus) (P61169 whole entry): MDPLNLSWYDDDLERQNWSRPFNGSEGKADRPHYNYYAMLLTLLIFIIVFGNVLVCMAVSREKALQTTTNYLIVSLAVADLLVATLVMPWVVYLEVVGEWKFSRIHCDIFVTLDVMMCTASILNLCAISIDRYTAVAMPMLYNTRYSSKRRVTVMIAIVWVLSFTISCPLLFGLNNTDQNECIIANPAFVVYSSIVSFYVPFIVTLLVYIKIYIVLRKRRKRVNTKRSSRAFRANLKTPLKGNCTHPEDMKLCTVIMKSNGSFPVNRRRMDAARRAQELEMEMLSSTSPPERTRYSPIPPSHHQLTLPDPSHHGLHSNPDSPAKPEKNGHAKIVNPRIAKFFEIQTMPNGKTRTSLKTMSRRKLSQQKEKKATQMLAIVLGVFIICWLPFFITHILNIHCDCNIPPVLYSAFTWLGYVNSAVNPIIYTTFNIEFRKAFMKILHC

Which results are given for `COc1nc2ccccc2nc1N1CCN(CCc2ccc(-c3csc(N)n3)cc2)CC1`?
inhibition in vivo at 10 mg/kg (Mus musculus [1]): 60%; inhibition [2]: 24%; inhibition in vivo at 10 mg/kg (Mus musculus [3]): 60%; Selectivity ratio (Mus musculus [4]): 0.1846; inhibition [5]: inactive; inhibition [6]: 49%; inhibition in vivo at 10 mg/kg (Mus musculus [7]): 65%; inhibition in vivo at 10 mg/kg (Mus musculus [8]): 12%; inhibition [9]: inactive; inhibition [10]: inactive; inhibition in vivo at 10 mg/kg (Mus musculus [11]): 12%; Time (Mus musculus [12]): 14.12 s; Imax (Mus musculus [13]): 65%

How did the inhibition in vivo at 0.6 mg/kg (Mus musculus [14]) turn out when `Cc1nc2n(c(=O)c1CCN1CCC(c3noc4cc(F)ccc34)CC1)CCCC2` [RISPERIDONE] was run?
Its inhibition in vivo at 0.6 mg/kg is 90%.

What about the Selectivity ratio (Mus musculus [4]) of the same molecule?
Its Selectivity ratio is 1.0989.

And the inhibition in vivo at 0.6 mg/kg (Mus musculus [15])?
The inhibition in vivo at 0.6 mg/kg was 100%.

And the Time (Mus musculus [16])?
The Time was 2.54 s.

And the inhibition in vivo at 0.6 mg/kg (Mus musculus [17])?
Its inhibition in vivo at 0.6 mg/kg is 91%.

And the inhibition in vivo at 10 mg/kg (Mus musculus [8])?
Its inhibition in vivo at 10 mg/kg is 100%.

What about the inhibition in vivo at 0.6 mg/kg (Mus musculus [18]) of the same molecule?
Its inhibition in vivo at 0.6 mg/kg is 91%.

And the Imax (Mus musculus [13])?
Its Imax is 91%.

How did the inhibition in vivo at 10 mg/kg (Mus musculus [1]) turn out when `COc1nc2ccccc2nc1N1CCN(CCc2ccc(-c3csc(C)n3)cc2)CC1` was run?
Its inhibition in vivo at 10 mg/kg is 85%.

And the inhibition [2]?
Its inhibition is 82%.

And the inhibition in vivo at 10 mg/kg (Mus musculus [3])?
The inhibition in vivo at 10 mg/kg was 70%.

And the Selectivity ratio (Mus musculus [4])?
Its Selectivity ratio is 0.7294.

What about the inhibition [5] of the same molecule?
The inhibition was “inactive”.

And the inhibition [6]?
The inhibition was 68%.

And the inhibition in vivo at 10 mg/kg (Mus musculus [7])?
The inhibition in vivo at 10 mg/kg was 65%.

And the inhibition in vivo at 10 mg/kg (Mus musculus [8])?
Its inhibition in vivo at 10 mg/kg is 62%.

And the inhibition [9]?
The inhibition was “inactive”.

And the inhibition [10]?
Its inhibition is “inactive”.

And the inhibition in vivo at 10 mg/kg (Mus musculus [11])?
Its inhibition in vivo at 10 mg/kg is 62%.

And the Time (Mus musculus [12])?
The Time was 6.25 s.

What about the Imax (Mus musculus [13]) of the same molecule?
The Imax was 85%.

With `CNc1nc(-c2ccc(CCN3CCN(c4nc5ccccc5nc4OC)CC3)cc2)cs1` as the molecule, how does the inhibition in vivo at 10 mg/kg (Mus musculus [1]) read?
Its inhibition in vivo at 10 mg/kg is 60%.

What about the inhibition [2] of the same molecule?
Its inhibition is 40%.

And the inhibition in vivo at 10 mg/kg (Mus musculus [3])?
Its inhibition in vivo at 10 mg/kg is 85%.

What about the Selectivity ratio (Mus musculus [4]) of the same molecule?
Its Selectivity ratio is 0.6.

And the inhibition [5]?
The inhibition was “inactive”.

What about the inhibition [6] of the same molecule?
Its inhibition is 58%.

And the inhibition in vivo at 10 mg/kg (Mus musculus [7])?
Its inhibition in vivo at 10 mg/kg is 65%.

What about the inhibition in vivo at 10 mg/kg (Mus musculus [8]) of the same molecule?
The inhibition in vivo at 10 mg/kg was 51%.

What about the inhibition [9] of the same molecule?
The inhibition was “inactive”.

What about the inhibition [10] of the same molecule?
Its inhibition is “inactive”.

And the inhibition in vivo at 10 mg/kg (Mus musculus [11])?
Its inhibition in vivo at 10 mg/kg is 51%.

What about the Time (Mus musculus [12]) of the same molecule?
Its Time is 10.67 s.

And the Imax (Mus musculus [13])?
The Imax was 85%.

For `Cc1nc(-c2ccc(CCN3CCN(c4cnc5ccccc5n4)CC3)cc2)cs1`, which inhibition in vivo at 10 mg/kg (Mus musculus [1]) is on record?
The inhibition in vivo at 10 mg/kg was 75%.

And the inhibition [2]?
The inhibition was 30%.

What about the inhibition in vivo at 10 mg/kg (Mus musculus [3]) of the same molecule?
Its inhibition in vivo at 10 mg/kg is 55%.

And the Selectivity ratio (Mus musculus [4])?
Its Selectivity ratio is 0.9059.

What about the inhibition [5] of the same molecule?
The inhibition was “inactive”.

And the inhibition [6]?
Its inhibition is 63%.

What about the inhibition in vivo at 10 mg/kg (Mus musculus [7]) of the same molecule?
The inhibition in vivo at 10 mg/kg was 85%.

What about the inhibition in vivo at 10 mg/kg (Mus musculus [8]) of the same molecule?
Its inhibition in vivo at 10 mg/kg is 77%.

What about the inhibition [9] of the same molecule?
Its inhibition is “inactive”.

What about the inhibition [10] of the same molecule?
The inhibition was “inactive”.

And the inhibition in vivo at 10 mg/kg (Mus musculus [11])?
Its inhibition in vivo at 10 mg/kg is 77%.

What about the Time (Mus musculus [12]) of the same molecule?
Its Time is 5.17 s.

What about the Imax (Mus musculus [13]) of the same molecule?
Its Imax is 85%.

What does the source list for `Nc1nc(-c2ccc(CCN3CCN(c4cnc5ccccc5n4)CC3)cc2)cs1`?
inhibition in vivo at 10 mg/kg (Mus musculus [1]): 60%; inhibition [2]: 26%; inhibition in vivo at 10 mg/kg (Mus musculus [3]): 75%; Selectivity ratio (Mus musculus [4]): 0.2; inhibition [5]: inactive; inhibition [6]: 51%; inhibition in vivo at 10 mg/kg (Mus musculus [7]): 65%; inhibition in vivo at 10 mg/kg (Mus musculus [8]): 15%; inhibition [9]: inactive; inhibition [10]: inactive; inhibition in vivo at 10 mg/kg (Mus musculus [11]): 15%; Time (Mus musculus [12]): 9.21 s; Imax (Mus musculus [13]): 75%
